Experimental data from ChEMBL document CHEMBL1136669, “Synthesis of aza and oxaglutamyl-p-nitroanilide derivatives and their kinetic studies with gamma-glutamyltranspeptidase” (Bioorg Med Chem Lett, 2003).
Blank lines part the entries; values can stand above or below the compound they belong to. Calls of active or inactive are those of the source. The calls are words filed in the database; no cut-off is given here.

Tests used:
[1] = biological target: Glutathione hydrolase 1 proenzyme (Rattus norvegicus) (UniProt P07314); test: Kinetic constant acting as acceptor substrate for gamma-GGT (Glutamyltranspeptidase)-mediated transpeptidation was determined in rat kidney (units are 10e3/min); type: tissue-based
Glutathione hydrolase 1 proenzyme (Rattus norvegicus), sequence (P07314 1-379 limits assumed): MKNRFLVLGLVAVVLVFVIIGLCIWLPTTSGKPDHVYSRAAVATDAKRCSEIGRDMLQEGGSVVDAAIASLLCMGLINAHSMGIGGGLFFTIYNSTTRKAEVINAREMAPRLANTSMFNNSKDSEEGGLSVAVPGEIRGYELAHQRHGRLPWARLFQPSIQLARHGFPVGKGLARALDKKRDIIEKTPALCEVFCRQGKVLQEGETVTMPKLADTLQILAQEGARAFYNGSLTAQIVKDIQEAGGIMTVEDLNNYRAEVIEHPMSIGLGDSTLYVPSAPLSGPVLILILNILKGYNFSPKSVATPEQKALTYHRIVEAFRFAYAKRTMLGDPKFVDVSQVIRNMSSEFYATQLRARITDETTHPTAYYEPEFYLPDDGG
Glutathione hydrolase 1 proenzyme (Rattus norvegicus), sequence (P07314 380-568 limits assumed): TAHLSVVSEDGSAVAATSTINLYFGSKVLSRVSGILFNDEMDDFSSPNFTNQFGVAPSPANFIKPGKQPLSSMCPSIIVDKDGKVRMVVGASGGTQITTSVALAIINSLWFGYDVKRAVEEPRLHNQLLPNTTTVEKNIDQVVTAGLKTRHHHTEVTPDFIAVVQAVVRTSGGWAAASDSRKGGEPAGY

[2] = biological target: Glutathione hydrolase 1 proenzyme (Rattus norvegicus) (UniProt P07314); test: Kinetic constant acting as donor substrate for gamma-GGT (Glutamyltranspeptidase)-mediated transpeptidation was determined in rat kidney (units are 10e3/min); type: tissue-based
[3] = Ratio of kinetic constant (Kcat/KM) acting as acceptor substrate for gamma-GGT (Glutamyltranspeptidase)-mediated transpeptidation was determined in rat kidney; set-up: unit not given here
[4] = Ratio of kinetic constant (Kcat/KM) acting as donor substrate for gamma-GGT (Glutamyltranspeptidase)-mediated transpeptidation was determined in rat kidney
[5] = biological target: Glutathione hydrolase 1 proenzyme (Rattus norvegicus) (UniProt P07314); test: Kinetic constant acting as donor substrate for gamma-GGT (Glutamyltranspeptidase)-mediated transpeptidation was determined in rat kidney (units are 10e3/min); Inactive at 2 mM with 33.8 mU of GGT; type: tissue-based
[6] = Ratio of kinetic constant (Kcat/KM) acting as donor substrate for gamma-GGT (Glutamyltranspeptidase)-mediated transpeptidation was determined in rat kidney; Inactive at 2 mM with 33.8 mU of GGT
[7] = biological target: Glutathione hydrolase 1 proenzyme (Rattus norvegicus) (UniProt P07314); test: Kinetic constant acting as acceptor substrate for gamma-GGT (Glutamyltranspeptidase)-mediated transpeptidation was determined in rat kidney (units are 10e3/min); Solubility- Insoluble for concentration greater than 15 mM; type: tissue-based
[8] = Ratio of kinetic constant (Kcat/KM) acting as acceptor substrate for gamma-GGT (Glutamyltranspeptidase)-mediated transpeptidation was determined in rat kidney; Solubility- Insoluble for concentration greater than 15 mM
[9] = biological target: Glutathione hydrolase 1 proenzyme (Rattus norvegicus) (UniProt P07314); test: Compound was tested for the mixed non-competitive inhibition of rat kidney gamma-glutamyltranspeptidase (gamma-GGT)
[10] = system: COC(=O)[C@@H](N)CNC(=O)Nc1ccc([N+](=O)[O-])cc1; test: Kinetic constant acting as donor substrate for gamma-GGT (Glutamyltranspeptidase)-mediated transpeptidation was determined; Inactive at 2 mM with 33.8 mU of GGT in rat kidney; type: tissue-based
[11] = system: COC(=O)[C@@H](N)COC(=O)Nc1ccc([N+](=O)[O-])cc1; test: (§1) Kinetic constant acting as donor substrate for gamma-GGT (Glutamyltranspeptidase)-mediated transpeptidation was determined; in rat kidney; Inactive at 2 mM with 33.8 mU of GGT
[12] = system: N[C@@H](CNC(=O)Nc1ccc([N+](=O)[O-])cc1)C(=O)O; test: as §1
[13] = system: N[C@@H](CNC(=O)Nc1ccc([N+](=O)[O-])cc1)C(=O)O; test: Kinetic constant acting as acceptor substrate for gamma-GGT (Glutamyltranspeptidase)-mediated transpeptidation was determined in rat kidney; Solubility- Insoluble for concentration greater than 15 mM
[14] = system: COC(=O)[C@@H](N)CCC(=O)Nc1ccc([N+](=O)[O-])cc1; test: (§2) Kinetic constant acting as donor substrate for GGT (gamma-Glutamyltranspeptidase)-mediated transpeptidation was determined in rat kidney; type: tissue-based
[15] = system: N[C@@H](CCC(=O)Nc1ccc([N+](=O)[O-])cc1)C(=O)O; test: as §2; type: tissue-based
COC(=O)[C@@H](N)CO [16] = test: Kinetic constant acting as donor substrate for gamma-GGT (Glutamyltranspeptidase)-mediated transpeptidation was determined in rat kidney; Not applicable
[17] = system: COC(=O)[C@@H](N)CCC(=O)Nc1ccc([N+](=O)[O-])cc1; test: (§3) Kinetic constant acting as acceptor substrate for gamma-GGT (Glutamyltranspeptidase)-mediated transpeptidation was determined in rat kidney
[18] = system: COC(=O)[C@@H](N)CNC(=O)Nc1ccc([N+](=O)[O-])cc1; test: as §3
[19] = system: COC(=O)[C@@H](N)COC(=O)Nc1ccc([N+](=O)[O-])cc1; test: as §3
COC(=O)[C@@H](N)CO [20] = test: as §3
[21] = system: N[C@@H](CCC(=O)Nc1ccc([N+](=O)[O-])cc1)C(=O)O; test: as §3
[22] = biological target: Glutathione hydrolase 1 proenzyme (Rattus norvegicus) (UniProt P07314); test: Kinetic constant acting as donor substrate for gamma-GGT (Glutamyltranspeptidase)-mediated transpeptidation was determined in rat kidney (units are 10e3/min); Not applicable; type: tissue-based
[23] = Ratio of kinetic constant (Kcat/KM) acting as donor substrate for gamma-GGT (Glutamyltranspeptidase)-mediated transpeptidation was determined in rat kidney; Not applicable
[24] = biological target: Glutathione hydrolase 1 proenzyme (Rattus norvegicus) (UniProt P07314); test: Kinetic constant acting as donor substrate for gamma-GGT (Glutamyltranspeptidase)-mediated transpeptidation was determined (units are 10e3/min); Inactive at 2 mM with 33.8 mU of GGT in rat kidney; type: tissue-based
[25] = Ratio of kinetic constant (Kcat/KM) acting as donor substrate for gamma-GGT (Glutamyltranspeptidase)-mediated transpeptidation was determined in rat kidney; Inactive at 2 mM with 33.8 mU of GGT in rat kidney

Glutathione hydrolase 1 proenzyme (Rattus norvegicus), P07314, sequence (P07314 whole entry): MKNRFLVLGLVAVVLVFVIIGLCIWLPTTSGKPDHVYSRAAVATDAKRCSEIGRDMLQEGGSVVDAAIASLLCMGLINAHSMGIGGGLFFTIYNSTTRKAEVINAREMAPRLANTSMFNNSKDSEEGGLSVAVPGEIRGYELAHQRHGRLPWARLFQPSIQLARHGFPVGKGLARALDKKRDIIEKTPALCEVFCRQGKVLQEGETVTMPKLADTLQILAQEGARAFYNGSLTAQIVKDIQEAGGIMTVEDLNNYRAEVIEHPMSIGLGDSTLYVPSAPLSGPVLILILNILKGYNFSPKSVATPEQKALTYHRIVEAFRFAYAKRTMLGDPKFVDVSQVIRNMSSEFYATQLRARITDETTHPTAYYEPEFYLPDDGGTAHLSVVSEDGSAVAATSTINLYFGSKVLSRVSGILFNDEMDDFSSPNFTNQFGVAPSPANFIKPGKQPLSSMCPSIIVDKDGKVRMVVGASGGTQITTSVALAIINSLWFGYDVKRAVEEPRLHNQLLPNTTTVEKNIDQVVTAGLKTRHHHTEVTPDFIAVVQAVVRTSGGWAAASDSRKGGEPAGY

Compound: COC(=O)[C@@H](N)COC(=O)Nc1ccc([N+](=O)[O-])cc1
k cat [1]: 80 s⁻¹
k cat [5]: inactive
Ratio [3]: 3e+06
Ratio [6]: inactive

Compound: Glutathione hydrolase 1 proenzyme (Rattus norvegicus), P07314
Km [10]: Not Active
Km [11]: Not Active
Km [12]: Not Active
Km [13]: Insoluble
Km [14]: 5.7 mM
Km [15]: 0.47 mM
Km (COC(=O)[C@@H](N)CO [16]): Not Active
Km [17]: 6 mM
Km [18]: 4 mM
Km [19]: 1.5 mM
Km (COC(=O)[C@@H](N)CO [20]): 34 mM
Km [21]: 6.3 mM

Compound: COC(=O)[C@@H](N)CO
k cat [1]: 21.7 s⁻¹
k cat [22]: inactive
Ratio [3]: 38000
Ratio [23]: inactive

Further lines, results first:

k cat [1]: 53.3 s⁻¹
k cat [2]: 25 s⁻¹
Ratio [3]: 580000
Ratio [4]: 270000
Compound: COC(=O)[C@@H](N)CCC(=O)Nc1ccc([N+](=O)[O-])cc1

k cat [1]: 267 s⁻¹
k cat [2]: 1.15 s⁻¹
Ratio [3]: 2.5e+06
Ratio [4]: 1.5e+08
Compound: N[C@@H](CCC(=O)Nc1ccc([N+](=O)[O-])cc1)C(=O)O

k cat [7]: Insoluble
k cat [5]: inactive
Ratio [8]: Insoluble
Ratio [6]: inactive
Ki' uncomp [9]: 1.7 mM
Compound: N[C@@H](CNC(=O)Nc1ccc([N+](=O)[O-])cc1)C(=O)O

k cat [1]: 102 s⁻¹
k cat [24]: inactive
Ratio [3]: 1.4e+06
Ratio [25]: inactive
Compound: COC(=O)[C@@H](N)CNC(=O)Nc1ccc([N+](=O)[O-])cc1
